{
  "source": "ChEMBL document CHEMBL5053537",
  "about": "“Next generation Glucose-1-phosphate thymidylyltransferase (RmlA) inhibitors: An extended SAR study to direct future design” (Bioorg Med Chem, 2021)",
  "key": {"Pseudomonas aeruginosa": {"system": "Pseudomonas aeruginosa", "test": "Inhibition of N-terminal His-tagged Pseudomonas aeruginosa RmIA expressed in Escherichia coli BL21 (lambdaDE3) at 10 uM using dTTP and G-1-P as substrates incubated for 30 mins by Biomol green reagent based assay relative to control"}, "[1]": {"system": "Mycobacterium tuberculosis", "test": "Antimycobacterial activity against Mycobacterium tuberculosis assessed as inhibition of bacterial growth", "format": "functional", "details": "read-out: MIC100"}, "[2]": {"test": "Inhibition of N-terminal His-tagged Pseudomonas aeruginosa RmIA expressed in Escherichia coli BL21 (lambdaDE3) using dTTP and G-1-P as substrates incubated for 30 mins by Biomol green reagent based assay"}},
  "data": [
    {"smiles": "CN(c1c(N)n(Cc2ccc(Br)cc2)c(=O)[nH]c1=O)S(=O)(=O)c1ccccc1", "values": [
      {"measurement": "inhibition", "setting": "Pseudomonas aeruginosa", "result": 100, "unit": "%"}
    ]},
    {"smiles": "CN(c1c(NCCCCCN)n(Cc2ccc(Br)cc2)c(=O)[nH]c1=O)S(=O)(=O)c1ccccc1", "values": [
      {"measurement": "inhibition", "setting": "Pseudomonas aeruginosa", "result": 100, "unit": "%"}
    ]},
    {"smiles": "CN(c1c(NCCCn2cc(CN)nn2)n(Cc2ccccc2)c(=O)[nH]c1=O)S(=O)(=O)c1ccccc1", "values": [
      {"measurement": "inhibition", "setting": "Pseudomonas aeruginosa", "result": 100, "unit": "%"}
    ]},
    {"smiles": "CN(c1c(N)n(Cc2ccccc2)c(=O)[nH]c1=O)S(=O)(=O)c1ccccc1", "values": [
      {"measurement": "MIC", "setting": "[1]", "result": 100, "unit": "µg/mL"}
    ]},
    {"smiles": "CNCCCNc1c(N(C)S(=O)(=O)c2ccccc2)c(=O)[nH]c(=O)n1Cc1ccc(Br)cc1", "values": [
      {"measurement": "inhibition", "setting": "Pseudomonas aeruginosa", "result": 100, "unit": "%"}
    ]},
    {"smiles": "CN(c1c(NCCCCN)n(Cc2ccc(Br)cc2)c(=O)[nH]c1=O)S(=O)(=O)c1ccccc1", "values": [
      {"measurement": "inhibition", "setting": "Pseudomonas aeruginosa", "result": 100, "unit": "%"}
    ]},
    {"smiles": "CNCCNc1c(N(C)S(=O)(=O)c2ccccc2)c(=O)[nH]c(=O)n1Cc1ccc(Br)cc1", "values": [
      {"measurement": "IC50", "setting": "[2]", "result": 96, "unit": "nM"}
    ]}
  ]
}
